Source: patent US8933039B2 (NPS Pharmaceuticals, Inc., priority 1995, dated 2015)
Non-standard residues stand in square brackets, D forms with d. Residues, ends and D or L forms follow the SMILES beside them. Met(O) = CS(=O)CC[C@H](N)C(=O)O; Nle = CCCC[C@H](N)C(=O)O

Test system: CD1 mice
Assay: Intestinotrophic activity assessment: small bowel weight in mice
Format: in vivo
Settings: for % Increase in small bowel weight: CD1 mice, 2.5 μg peptide s.c. b.i.d. in PBS, sacrificed 10 or 14 days, relative to vehicle only; for % Activity (small bowel inducing activity relative to native rat GLP-2(1-33) = 100%): mice, as Example 4
Experimental: Recipients were CD1 mice obtained from Charles River Laboratory (Ontario, Canada). The CD1 mice were aged-matched females at time of injection (n=3-4 per group), 6 weeks of age, unless otherwise specified. The animals were allowed a minimum of 24 hours to acclimatize to the laboratory facility before the initiation of each experiment. Animals were identified by ear punch. The mice were not restricted by diet or activity during the experiments. The light/dark cycle was 12 hours, between 6 pm to 6 am. Controls were age- and sex-matched (n=3-4) animals. Mice were injected subcutaneously, twice a day (b.i.d.), with 2.5 μg peptide in a total volume of 0.5 cc of PBS and were monitored daily in the laboratory facility. Animals were sacrificed 10 or 14 days after injection, and were fasted at least 20 hours before sacrifice.
The mice were anaesthetised with CO2 and exsanguinated by cardiac puncture. Blood was collected in 75 μl of TED (Trasysol; EDTA (5000 KIU/ml: 1.2 mg/ml; Diprotin-A), and the blood was centrifuged at 14 k×g for 5 minutes and the plasma was stored at −70 prior to analysis. The small bowel was removed from the peritoneal cavity, from pylorus to cecum, cleaned weighed and measured. For comparative purpose, sections from each animal were obtained from the identical anatomical position. Fragments each measuring 1.5-2.0 cm in length were obtained 8±2 cm, 18±2 cm, 32±2 cm from pylorus for histomorphometry representing proximal jejunum, distal jejunum and distal ileum. Each small bowel fragment was opened longitudinally on its antimesenteric border in a tissue block and then placed on 10% formalin (vol./vol.) overnight, then transferred to 70% […].
Percentage change in small bowel weight was calculated by dividing the mean change in bowel weight of analog treated mice, relative to mice treated with vehicle only, by the mean bowel weight of mice treated with vehicle only, and multiplying this figure by 100.
Experiments assessing the small bowel inducing activity of various analogs was repeated as described above for Example 4. In these experiments, the small bowel inducing activity of each analog in mice was calculated relative to that of native rat GLP-2(1-33) (expressed as 100% of activity). Resistance of analogs to DPP-IV cleavage was performed as described above in Example 3.

Molecule | % Increase in small bowel weight | % Activity (small bowel inducing activity relative to native rat GLP-2(1-33) = 100%)
[Met SO2^10]rGLP-2 | 8% | –
H-HGDGSFSDEMNTILDNLAARDFINWLAQTKITD-OH [[Gly2,Ala27]hGLP-2(1-33)] | 22% | 82%
H-HGDGSASDEMNTILDNLAARDFINWLIQTKITD-OH [[Gly2,Ala6]hGLP-2(1-33)] | 18% | 67%
H-HGDGSFSDEANTILDNLAARDFINWLIQTKITD-OH [[Gly2,Ala10]hGLP-2(1-33)] | 33% | 82%
H-HGDGSFSDEMNTILDNLAARDFINWAIQTKITD-OH [[Gly2,Ala26]hGLP-2(1-33)] | – | 28%
H-HADGSFSDYSKYLDNLAARDFINWLIQTKITD-OH [[Tyr9, Ser10, Lys11, Tyr12, des-Ile13]hGLP-2(1-33)] | 41% | 94%
H-HGDGSFADEMNTILDNLAARDFINWLIQTKITD-OH [[Gly2,Ala7]hGLP-2(1-33)] | 22% | 82%
CC[C@H](C)[C@H](NC(=O)[C@H](Cc1ccccc1)NC(=O)[C@H](CC(=O)O)NC(=O)[C@H](CCCNC(=N)N)NC(=O)[C@H](C)NC(=O)[C@H](C)NC(=O)[C@H](CC(C)C)NC(=O)[C@H](CC(N)=O)NC(=O)[C@H](CC(=O)O)NC(=O)[C@H](CC(C)C)NC(=O)[C@@H](NC(=O)[C@@H](NC(=O)[C@H](CC(N)=O)NC(=O)[C@H](CCSC)NC(=O)[C@H](CCC(=O)O)NC(=O)[C@H](CC(=O)O)NC(=O)[C@H](CO)NC(=O)[C@H](Cc1ccccc1)NC(=O)[C@H](CO)NC(=O)CNC(=O)[C@H](CC(=O)O)NC(=O)[C@H](C)NC(=O)[C@@H](N)Cc1c[nH]cn1)[C@@H](C)O)[C@@H](C)CC)C(=O)N[C@@H](CC(N)=O)C(=O)N[C@@H](Cc1c[nH]c2ccccc12)C(=O)N[C@@H](CC(C)C)C(=O)N[C@H](C(=O)N[C@@H](CCC(N)=O)C(=O)N[C@H](C(=O)N[C@@H](CCCCN)C(=O)N[C@H](C(=O)N[C@H](C(=O)N[C@@H](CC(=O)O)C(=O)N[C@@H](Cc1ccc(O)cc1)C(=O)O)[C@@H](C)O)[C@@H](C)CC)[C@@H](C)O)[C@@H](C)CC [[Tyr34]hGLP-2(1-34)] | – | 135%
H-HGDGSFSDEMNAILDNLAARDFINWLIQTKITD-OH [[Gly2,Ala12]hGLP-2(1-33)] | 18% | 67%
H-HGDGSFSDEMNTILDALAARDFINWLIQTKITD-OH [[Gly2,Ala16]hGLP-2(1-33)] | 36% | 130%
H-HADGSFSDEMNTILDSRRARDFINWLIQTKITD-OH [[Ser16, Arg17, Arg18]hGLP-2(1-33)] | – | 59%
H-HADGSFSDEMNTILDNLATKDFINWLIQTKITD-OH [[Lys20]ratGLP-2(1-33)] | 62% | 120%
H-HADGSFSDEMNTILDNLATRDFINWLIQTKITD-NH2 [ratGLP-2(1-33)amide] | 23% | 56%
CC[C@H](C)[C@H](NC(=O)[C@H](Cc1ccccc1)NC(=O)[C@H](CC(=O)O)NC(=O)[C@H](CCCNC(=N)N)NC(=O)[C@@H](NC(=O)[C@H](C)NC(=O)[C@H](CC(C)C)NC(=O)[C@H](CC(N)=O)NC(=O)[C@H](CC(=O)O)NC(=O)[C@H](CC(C)C)NC(=O)[C@@H](NC(=O)[C@@H](NC(=O)[C@H](CC(N)=O)NC(=O)[C@H](CC[S+](C)[O-])NC(=O)[C@H](CCC(=O)O)NC(=O)[C@H](CC(=O)O)NC(=O)[C@H](CO)NC(=O)[C@H](Cc1ccccc1)NC(=O)[C@H](CO)NC(=O)CNC(=O)[C@H](CC(=O)O)NC(=O)[C@H](C)NC(=O)[C@@H](N)Cc1c[nH]cn1)[C@@H](C)O)[C@@H](C)CC)[C@@H](C)O)C(=O)N[C@@H](CC(N)=O)C(=O)N[C@@H](Cc1c[nH]c2ccccc12)C(=O)N[C@@H](CC(C)C)C(=O)N[C@H](C(=O)N[C@@H](CCC(N)=O)C(=O)N[C@H](C(=O)N[C@@H](CCCCN)C(=O)N[C@H](C(=O)N[C@H](C(=O)N[C@@H](CC(=O)O)C(=O)O)[C@@H](C)O)[C@@H](C)CC)[C@@H](C)O)[C@@H](C)CC (stereo partly drawn) [[Met(O)10]ratGLP-2(1-33)] (H-HADGSFSDE[Met(O)]NTILDNLATRDFINWLIQTKITD-OH) | – | 18%
CCCC[C@H](NC(=O)[C@H](CCC(=O)O)NC(=O)[C@H](CC(=O)O)NC(=O)[C@H](CO)NC(=O)[C@H](Cc1ccccc1)NC(=O)[C@H](CO)NC(=O)CNC(=O)[C@H](CC(=O)O)NC(=O)[C@H](C)NC(=O)[C@@H](N)Cc1c[nH]cn1)C(=O)N[C@@H](CC(N)=O)C(=O)N[C@H](C(=O)N[C@H](C(=O)N[C@@H](CC(C)C)C(=O)N[C@@H](CC(=O)O)C(=O)N[C@@H](CC(N)=O)C(=O)N[C@@H](CC(C)C)C(=O)N[C@@H](C)C(=O)N[C@H](C(=O)N[C@@H](CCCNC(=N)N)C(=O)N[C@@H](CC(=O)O)C(=O)N[C@@H](Cc1ccccc1)C(=O)N[C@H](C(=O)N[C@@H](CC(N)=O)C(=O)N[C@@H](Cc1c[nH]c2ccccc12)C(=O)N[C@@H](CC(C)C)C(=O)N[C@H](C(=O)N[C@@H](CCC(N)=O)C(=O)N[C@H](C(=O)N[C@@H](CCCCN)C(=O)N[C@H](C(=O)N[C@H](C(=O)N[C@@H](CC(=O)O)C(=O)O)[C@@H](C)O)[C@@H](C)CC)[C@@H](C)O)[C@@H](C)CC)[C@@H](C)CC)[C@@H](C)O)[C@@H](C)CC)[C@@H](C)O [[Nlel0]ratGLP-2(1-33), [Nle^10]ratGLP-2(1-33)] (H-HADGSFSDE[Nle]NTILDNLATRDFINWLIQTKITD-OH) | 52% | 100%
H-HGDGSFSDEMATILDNLAARDFINWLIQTKITD-OH [[Gly2,Ala11]hGLP-2(1-33)] | 42% | 150%
H-HGDGSFSDEMNTILDNLAARDFANWLIQTKITD-OH [[Gly2,Ala23]hGLP-2(1-33)] | – | 24%
H-HGDGSFSDAMNTILDNLAARDFINWLIQTKITD-OH [[Gly2,Ala9]hGLP-2(1-33)] | 31% | 112%
